According to patent publication US20260041744A1, “Methods for Treating Pompe Disease” (Amicus Therapeutics, Inc., priority 2022, published 2026):
“Also recorded” adds a separate entry of the source.

Columns and labels:
[1] = test system: adult subjects with late-onset Pompe disease (LOPD); assay: Study ATB200-03 (PROPEL): serum creatine kinase (CK); format: in vivo, human; conditions: for CK reduction vs alglucosidase alfa: week 52
[2] = test system: adult subjects with late-onset Pompe disease (LOPD); assay: Study ATB200-03 (PROPEL): PROMIS-Physical Function; format: in vivo, human; conditions: for CHG to Week 52 in PROMIS-Physical Function total score, LS Mean / CHG to Week 52 in PROMIS-Physical Function total score, LS Mean Treatment Difference: MMRM; for CHG to Week 52 in PROMIS-Physical Function total score, LS Mean: actual time point of assessments; for PROMIS-Physical Function Short Form 20a total score CHG, LS means (SE) / PROMIS-Physical Function Short Form 20a total score CHG, Difference of LS means (SE) (cipaglucosidase alfa/miglustat − alglucosidase alfa/placebo): Week 52; for CHG to Week 52 in PROMIS-Physical Function total score, LS Mean Treatment Difference: actual time point; for PROMIS physical function outcome: overall and ERT-experienced populations
Experimental: The test for the primary endpoint was conducted first at the 1-sided 0.025 significance level, and if significant, the ordered key secondary endpoints were similarly tested at the same significance level. The statistical significance of the key secondary endpoints was interpreted following a hierarchical testing order, each at the 1-sided alpha level of 0.025. […] Primary analyses of efficacy were performed using the mixed-effect model for repeated measures (MMRM) for 6MWD in Intent-to-treat Observed Population (ITT) that includes all available, observed data without any missing data imputation (ITT-OBS) and analysis of covariance (ANCOVA) for all other endpoints in the Intent-to-Treat-Last Observation Carried Forward (ITT-LOCF) Population. A nonparametric randomization based ANCOVA was specified as the first sensitivity analysis for 6MWD and FVC. […] For the purposes of data presentation in this document, 2-sided p-values are reported hereafter, except as otherwise noted.

adult subjects with LOPD [3] = assay: Study ATB200-07 (OLE of PROPEL): 6MWD and % predicted 6MWD; format: in vivo, human
Source text: The study doses and schedule are maintained from Study ATB200-03.
Efficacy data are presented in this summary as change from the baseline of Study ATB200-03 (OLE-ES Population).

adult subjects with LOPD [4] = assay: Study ATB200-07 (OLE): GSGC; format: in vivo, human
Source text: (§1) Analysis populations presented in this summary are 1) the OLE-ES Population (all subjects who satisfied the eligibility requirements (based on the inclusion and exclusion criteria) and entered Study ATB200-07 and 2) the OLE-FAS Population (all subjects who entered the OLE Study ATB200-07 who had both a valid ATB200-07 baseline and at least 1 post-baseline assessment for at least 1 of the 6 main efficacy endpoints [6MWD, sitting % predicted FVC, MMT-lower extremities, PROMIS-Physical Function, PROMIS-Fatigue, and GSGC]).

adult subjects with LOPD [5] = assay: Study ATB200-07 (OLE): PROMIS-Physical Function; format: in vivo, human
Source text: as §1

[6] = test system: adult subjects with Pompe disease; assay: Pooled Studies ATB200-02/03/07 (Pool 2): sitting % predicted FVC by exposure interval
Experimental: The pooled efficacy analyses presented within this section include the outlier (Pool 2). […] Pooled efficacy analyses excluding the outlier subject (Pool 2A) were also performed.
No long-term data for the alglucosidase alfa/placebo group are available, as all subjects switched to cipaglucosidase alfa/miglustat in Study ATB200-07.
Efficacy data from the 3 adult Pompe disease clinical studies were pooled and analyzed to further support the long-term efficacy of cipaglucosidase alfa/miglustat in adult subjects. Data from non-ambulatory subjects (Study ATB200-02 Cohort 2) were not included in the pool as there was little overlap of efficacy endpoints for this group with the various ambulatory groups, such as 6MWD and lower MMT.
The 3 adult Pompe disease clinical studies were pooled as follows: • The cipaglucosidase alfa/miglustat treatment group consists of: • All ambulatory subjects in Study ATB200-02 (Cohorts 1, 3, and 4), • All subjects randomized to the cipaglucosidase alfa/miglustat treatment group in Study ATB200-03, and • All subjects enrolled in Study ATB200-07. • The alglucosidase alfa/placebo treatment group consists of: • All subjects randomized to the ERT treatment group in Study ATB200-03.

[7] = test system: adult subjects with late-onset Pompe disease (LOPD); assay: Study ATB200-03 (PROPEL): urinary hexose tetrasaccharide (Hex4/Glc4); format: in vivo, human; conditions: for urinary Hex4 reduction vs alglucosidase alfa: week 52
[8] = test system: adult subjects with late-onset Pompe disease (LOPD); assay: Study ATB200-03: global test and responder analyses on 6MWD, FVC, MMT; format: in vivo, human
Source text: To support the interpretation of clinical benefit, a composite subject-level response was defined based on the totality of the treatment outcome data. Subjects were classified by an ordinal response variable consisting of significant improvement, moderate improvement, or minor/no improvement based on treatment outcomes.
Thresholds for clinically relevant changes for 6MWD and FVC in Pompe specifically are not well established, however a large body of data exists from other neuromuscular and chronic respiratory diseases, especially interstitial pulmonary fibrosis (IPF). […] Accordingly, these thresholds were applied to analyses of Study ATB200-03 data.
Additional post hoc patient-level analyses were conducted using these thresholds for 6MWD (±6%) and FVC (±3%) separately and combined.

[9] = listed as cipaglucosidase alfa/miglustat
[10] = Week 52-LOCF, ERT-experienced Population
[11] = Week 52-LOCF, ERT-naïve Subjects excluding Subject 4005-2511
[12] = Week 52-LOCF, ITT excluding Subject 4005-2511
[13] = Study ATB200-03 baseline, OLE-ES Population excluding Subject 4005-2511
[14] = change from ATB200-03 baseline at Week 104, alglucosidase alfa/placebo group switched to cipaglucosidase alfa/miglustat at Week 52, OLE-ES excluding Subject 4005-2511
[15] = exposure interval >15 to ≤24 months, Pool 2, including the outlier
[16] = exposure interval >24 months, Pool 2, including the outlier
[17] = exposure interval ≤15 months, Pool 2, including the outlier
[18] = Excluding Subject 4005-2511, change from baseline to Week 52, 2-sided p 0.010
[19] = ITT Population, change from baseline to Week 52, 2-sided p 0.022

ATB200/miglustat: two-component therapy: cipaglucosidase alfa (ATB200) administered in conjunction with miglustat (AT2221), a stabilizer of cipaglucosidase alfa
mean change in CK after 52 weeks ([1]; combined study population): −22.4%
CK reduction vs alglucosidase alfa [1]: reductions in CK and urinary Hex4 were significantly greater with ATB200/miglustat treatment at week 52
CK reduction vs alglucosidase alfa ([1]; listed as AT-GAA): significantly favored AT-GAA compared to alglucosidase alfa
CK reduction vs alglucosidase alfa [1, 9]: reductions in biomarkers of muscle damage (CK) and disease substrate (Hex4) also were significantly greater with cipaglucosidase alfa/miglustat compared with alglucosidase alfa
PROMIS-Physical Function Short Form 20a total score Absolute Value, Median ([2]; Baseline, ITT, ERT-naïve Subjects excluding Subject 4005-2511): 76.00
PROMIS-Physical Function Short Form 20a total score Absolute Value, Mean ([2]; Baseline, ITT, ERT-naïve Subjects excluding Subject 4005-2511, score 20 to 100, higher = less impact): 74.65
mean (SD) change in PROMIS-Physical Function total score from baseline to Week 52 ([2]; ERT-experienced Population): 1.8 (7.18)
mean (SD) change in PROMIS-Physical Function total score from baseline to Week 52 ([2]; ERT-naïve excluding Subject 4005-2511): 2.5 (8.62)
Change in PROMIS-Physical Function total score baseline to Week 52, LS means (SE) from ANCOVA ([2]; ITT-LOCF, ERT-naïve Subjects excluding Subject 4005-2511): 1.87 (1.917)
CHG to Week 52 in PROMIS-Physical Function total score, LS Mean ([2]; ITT-OBS excluding Subject 4005-2511 (overall)): 2.2
CHG to Week 52 in PROMIS-Physical Function total score, LS Mean ([2]; ITT-OBS excluding Subject 4005-2511, ERT-naïve Subjects): 2.6
CHG to Week 52 in PROMIS-Physical Function total score, LS Mean ([2]; ITT-OBS, ERT-experienced Subjects): 2.0
PROMIS-Physical Function Short Form 20a total score Absolute Value, Mean (SD) [2, 10]: 66.19 (12.325)
PROMIS-Physical Function Short Form 20a total score Absolute Value, Median [2, 10]: 66.00
PROMIS-Physical Function Short Form 20a total score CHG, Mean (SD) [2, 10]: 1.76 (7.179)
PROMIS-Physical Function Short Form 20a total score CHG, Median [2, 10]: 0.50
PROMIS-Physical Function Short Form 20a total score Absolute Value, Mean [2, 11]: 77.15
PROMIS-Physical Function Short Form 20a total score Absolute Value, Median [2, 11]: 77.50
PROMIS-Physical Function Short Form 20a total score CHG (change from baseline), Mean [2, 11]: 2.50
PROMIS-Physical Function Short Form 20a total score CHG (change from baseline), Median [2, 11]: 0.00
PROMIS-Physical Function Short Form 20a total score Absolute Value, Mean (SD) [2, 12]: 68.80 (12.954)
PROMIS-Physical Function Short Form 20a total score Absolute Value, Median [2, 12]: 68.00
PROMIS-Physical Function Short Form 20a total score CHG, Mean (SD) [2, 12]: 1.94 (7.498)
PROMIS-Physical Function Short Form 20a total score CHG, Median [2, 12]: 0.00
PROMIS-Physical Function Short Form 20a total score CHG, LS means (SE) ([2]; ANCOVA, ITT-LOCF excluding Subject 4005-2511): 1.98 (0.921)
PROMIS-Physical Function Short Form 20a total score CHG, Difference of LS means (SE) (cipaglucosidase alfa/miglustat − alglucosidase alfa/placebo) ([2]; ANCOVA, ITT-LOCF excluding Subject 4005-2511, 2-sided p 0.276): 1.87 (1.706)
PROMIS-Physical Function Short Form 20a total score CHG, LS means (SE) ([2]; ANCOVA, ITT-LOCF, ERT-experienced Population): 1.90 (1.071)
PROMIS-Physical Function Short Form 20a total score CHG, Difference of LS means (SE) (cipaglucosidase alfa/miglustat − alglucosidase alfa/placebo) ([2]; ANCOVA, ITT-LOCF, ERT-experienced Population, 2-sided p 0.110): 3.14 (1.948)
LS Mean Treatment Difference (SE), CHG to Week 52 in PROMIS-Physical Function total score ([2]; cipaglucosidase alfa/miglustat − alglucosidase alfa/placebo, ITT-LOCF, ANCOVA, 2-sided p 0.426): 1.37 (1.714)
Change in PROMIS-Physical Function total score baseline to Week 52, Difference of LS means (SE) from ANCOVA ([2]; cipaglucosidase alfa/miglustat − alglucosidase alfa/placebo, ITT-LOCF, ERT-naïve Subjects excluding Subject 4005-2511): −5.09 (4.288)
CHG to Week 52 in PROMIS-Physical Function total score, LS Mean Treatment Difference ([2]; cipaglucosidase alfa/miglustat − alglucosidase alfa/placebo, ITT-OBS excluding Subject 4005-2511 (overall)): 2.5
CHG to Week 52 in PROMIS-Physical Function total score, LS Mean Treatment Difference ([2]; cipaglucosidase alfa/miglustat − alglucosidase alfa/placebo, ITT-OBS excluding Subject 4005-2511, ERT-naïve Subjects): −3.1
CHG to Week 52 in PROMIS-Physical Function total score, LS Mean Treatment Difference ([2]; cipaglucosidase alfa/miglustat − alglucosidase alfa/placebo, ITT-OBS, ERT-experienced Subjects): 3.5
PROMIS physical function outcome [2]: PROMIS physical function numerically favored ATB200/miglustat treatment
PROMIS physical function outcome ([2]; listed as AT-GAA): improved numerically more than alglucosidase alfa treated patients
mean (SD) change in PROMIS-Physical Function total score from baseline to Week 52 ([2]; overall population): 1.9 (7.50)
6MWD course to Week 104 (adult subjects with LOPD [3]; OLE-ES Population, continued cipaglucosidase alfa/miglustat): showed an improvement through Study ATB200-03, which was then maintained through Week 104
6MWD, mean BSL (adult subjects with LOPD [3]; [13]): 354.9 m
6MWD, mean 52-wk CFB (adult subjects with LOPD [3]; change from ATB200-03 baseline at Week 52 (= ATB200-07 baseline), OLE-ES excluding Subject 4005-2511): 20.6 m
6MWD, mean 104-wk CFB (adult subjects with LOPD [3]; [14]): 20.2 m
GSGC, mean BSL (adult subjects with LOPD [4]; [13]): 14.4
GSGC, mean 52-wk CFB (adult subjects with LOPD [4]; change from ATB200-03 baseline at Week 52, decrease indicates improvement, OLE-ES excluding Subject 4005-2511): −0.6
GSGC, mean 104-wk CFB (adult subjects with LOPD [4]; [14]): −1.0
PROMIS-Physical Function, mean BSL (adult subjects with LOPD [5]; [13]): 67.0
PROMIS-Physical Function, mean 52-wk CFB (adult subjects with LOPD [5]; change from ATB200-03 baseline at Week 52, OLE-ES excluding Subject 4005-2511): 2.2
PROMIS-Physical Function, mean 104-wk CFB (adult subjects with LOPD [5]; [14]): 2.3
mean (SD) change from baseline in % predicted FVC ([6]; exposure >15 to ≤24 months (n=97)): -0.88 (7.103)
mean (SD) change from baseline in % predicted FVC ([6]; exposure >24 months (n=68)): −2.55 (8.393)
Sitting % Predicted FVC Baseline, Mean [6, 15]: 66.89 % predicted
Sitting % Predicted FVC Baseline, Median [6, 15]: 67.50 % predicted
sitting % predicted FVC change from baseline, mean [6, 15]: −0.88 % predicted
sitting % predicted FVC change from baseline, median [6, 15]: −1.00 % predicted
Sitting % Predicted FVC Baseline, Mean [6, 16]: 67.15 % predicted
Sitting % Predicted FVC Baseline, Median [6, 16]: 69.00 % predicted
sitting % predicted FVC change from baseline, mean [6, 16]: −2.55 % predicted
sitting % predicted FVC change from baseline, median [6, 16]: −2.25 % predicted
Sitting % Predicted FVC Baseline, Mean ([6]; exposure interval ≤15 months, Pool 2, Efficacy Population including the outlier): 67.51 % predicted
Sitting % Predicted FVC Baseline, Median [6, 17]: 68.00 % predicted
sitting % predicted FVC change from baseline, median [6, 17]: −1.00 % predicted
sitting % predicted FVC change from baseline, mean ([6]; exposure interval ≤15 months, last available post-baseline value − baseline, Pool 2, including the outlier): −0.74 % predicted
mean (SD) change from baseline in % predicted FVC ([6]; exposure ≤15 months (n=139)): -0.74 (6.121)
mean change in urine Hex-4 after 52 weeks ([7]; combined ERT switch and ERT naïve population): −31.5%
urinary Hex4 reduction vs alglucosidase alfa [7]: reductions in CK and urinary Hex4 were significantly greater with ATB200/miglustat treatment at week 52
urinary Hex4 reduction vs alglucosidase alfa ([7]; listed as AT-GAA): significantly favored AT-GAA compared to alglucosidase alfa
urinary Hex4 reduction vs alglucosidase alfa [7, 9]: reductions in biomarkers of muscle damage (CK) and disease substrate (Hex4) also were significantly greater with cipaglucosidase alfa/miglustat compared with alglucosidase alfa
Wilcoxon rank sum test on sum of ranks for 6MWD and % predicted FVC: Mean Score [8, 18]: 66.5
Wilcoxon rank sum test on sum of ranks for 6MWD and % predicted FVC: Sum of Scores [8, 18]: 5587.5
Wilcoxon rank sum test on sum of ranks for 6MWD and FVC: Mean Score [8, 19]: 66.5
Wilcoxon rank sum test on sum of ranks for 6MWD and FVC: Sum of Scores [8, 19]: 5587.5
post hoc global test on 6MWD and % predicted FVC ([8]; Wilcoxon rank-sum on summed ranks, listed as cipaglucosidase alfa/miglustat): greater improvement in either 6MWD or FVC; also recorded: greater improvement in subjects treated with cipaglucosidase alfa/miglustat versus alglucosidase alfa/placebo
patient-level responder analyses 6MWD, FVC, MMT ([8]; thresholds ±6%, ±3%, ±7%, overall population, listed as cipaglucosidase alfa/miglustat): a greater proportion of subjects in the overall population treated with cipaglucosidase alfa/miglustat demonstrated clinically meaningful improvement and a smaller proportion demonstrated clinically meaningful worsening across these 3 endpoints; also recorded: significantly greater proportion of subjects with improvement on both domains
